Source: patent US20100004128A1, “HERBICIDAL ISOXAZOLINE COMPOUNDS” (SYNGENTA CROP PROTECTION, INC., priority 2006, published 2010)
Blank lines part the entries; values can stand above or below the molecule they belong to.

Tests used:
[1] = system: Monocotyledonous and dicotyledonous test plants; experiment: Herbicidal action, application pre-emergence; format: in vivo; parameters: key: 10=total damage to plant; 0=no damage to plant; details: spray solution 1000 mg/l, scale 0-10; for Herbicidal action (damage score) AGSTE: Agrostis tenius; for Herbicidal action (damage score) AMARE: Amaranthus retroflexus; for Herbicidal action (damage score) DIGSA: Digitaria sanguinalis; for Herbicidal action (damage score) POATR: Poa trivialis; for Herbicidal action (damage score) SETFA: Setaria faberi; for Herbicidal action (damage score) SETIT: Setaria italica
Experimental: Monocotyledonous and dicotyledonous test plants were sown in sterilised standard soil in seed trays each having 96 cells. After one day (pre-emergence) or after 8 to 9 days cultivation (post-emergence) under controlled conditions in a climatic chamber (cultivation at 23/17° C., day/night; 13 hours light; 50-60% humidity; after application at 24/19° C., day/night), the plants were treated with an aqueous spray solution of 1000 mg/l of the active ingredient used (incl. 10% DMSO as solvent). The plants were grown on in the climatic chamber until the test was evaluated (10=total damage to plant, 0=no damage to plant) after 9 or 13 days.

Compound: Cn1nc(Br)c(C(F)(F)[S+]([O-])C2=NOC(C)(C)C2)n1 (stereo not shown) [1.47]
Herbicidal action (damage score) AGSTE [1]: 10
Herbicidal action (damage score) AMARE [1]: 10
Herbicidal action (damage score) DIGSA [1]: 9
Herbicidal action (damage score) POATR [1]: 10
Herbicidal action (damage score) SETFA [1]: 9

Compound: CC1(C)CC(S(=O)(=O)C(F)(F)c2nn(CC3CCC3)nc2C(F)(F)F)=NO1 [1.48]
Herbicidal action (damage score) AGSTE [1]: 10
Herbicidal action (damage score) AMARE [1]: 9
Herbicidal action (damage score) DIGSA [1]: 10
Herbicidal action (damage score) POATR [1]: 6
Herbicidal action (damage score) SETFA [1]: 9

Compound: CC1(C)CC([S+]([O-])C(F)(F)c2nn(CC3CCC3)nc2C(F)(F)F)=NO1 (stereo not shown) [1.49]
Herbicidal action (damage score) AGSTE [1]: 10
Herbicidal action (damage score) AMARE [1]: 9
Herbicidal action (damage score) DIGSA [1]: 10
Herbicidal action (damage score) POATR [1]: 10
Herbicidal action (damage score) SETFA [1]: 9

Compound: CC1(C)CC(S(=O)(=O)C(F)(F)c2cn(C(C)(C)C)nn2)=NO1 [2.02]
Herbicidal action (damage score) AGSTE [1]: 9
Herbicidal action (damage score) AMARE [1]: 3
Herbicidal action (damage score) DIGSA [1]: 9
Herbicidal action (damage score) POATR [1]: 9
Herbicidal action (damage score) SETFA [1]: 8

Compound: CC1(C)CC([S+]([O-])C(F)(F)c2cn(C(C)(C)C)nn2)=NO1 (stereo not shown) [2.04]
Herbicidal action (damage score) AGSTE [1]: 6
Herbicidal action (damage score) AMARE [1]: 0
Herbicidal action (damage score) DIGSA [1]: 2
Herbicidal action (damage score) POATR [1]: 0
Herbicidal action (damage score) SETFA [1]: 6

Compound: Cn1nnc(C(F)(F)F)c1C(F)(F)S(=O)(=O)C1=NOC(C)(C)C1 [3.02]
Herbicidal action (damage score) AGSTE [1]: 10
Herbicidal action (damage score) AMARE [1]: 10
Herbicidal action (damage score) DIGSA [1]: 10
Herbicidal action (damage score) POATR [1]: 10
Herbicidal action (damage score) SETIT [1]: 10

Compound: Cn1nnc(Br)c1C(F)(F)[S+]([O-])C1=NOC(C)(C)C1 (stereo not shown) [3.06]
Herbicidal action (damage score) AGSTE [1]: 10
Herbicidal action (damage score) AMARE [1]: 10
Herbicidal action (damage score) DIGSA [1]: 9
Herbicidal action (damage score) POATR [1]: 10
Herbicidal action (damage score) SETFA [1]: 9

melting point: 54 °C
Compound: Cn1nc(CF)c(C(F)(F)S(=O)(=O)C2=NOC(C)(C)C2)n1 [Compound No. 1.01, 4-[(5,5-dimethyl-4,5-dihydro-isoxazole-3-sulfonyl)-difluoro-methyl]-5-fluoromethyl-2-methyl-2H-[1,2,3]triazole]
Herbicidal action (damage score) AGSTE [1]: 10
Herbicidal action (damage score) AMARE [1]: 10
Herbicidal action (damage score) DIGSA [1]: 10
Herbicidal action (damage score) POATR [1]: 10
Herbicidal action (damage score) SETIT [1]: 10

melting point: 80 °C
Compound: Cn1nc(CF)c(C(F)(Cl)S(=O)(=O)C2=NOC(C)(C)C2)n1 (stereo not shown) [Compound No. 1.03, 4-[chloro-(5,5-dimethyl-4,5-dihydro-isoxazole-3-sulfonyl)-fluoro-methyl]-5-fluoromethyl-2-methyl-2H-[1,2,3]triazole]
Herbicidal action (damage score) AGSTE [1]: 10
Herbicidal action (damage score) AMARE [1]: 8
Herbicidal action (damage score) DIGSA [1]: 10
Herbicidal action (damage score) POATR [1]: 10
Herbicidal action (damage score) SETIT [1]: 9

Compound: Cc1nn(C)nc1C(F)S(=O)(=O)C1=NOC(C)(C)C1 (stereo not shown) [Compound No. 1.04, 4-[(5,5-dimethyl-4,5-dihydro-isoxazole-3-sulfonyl)-fluoro-methyl]-2,5-dimethyl-2H-[1,2,3]triazole]
Herbicidal action (damage score) AGSTE [1]: 10
Herbicidal action (damage score) AMARE [1]: 9
Herbicidal action (damage score) DIGSA [1]: 10
Herbicidal action (damage score) POATR [1]: 10
Herbicidal action (damage score) SETIT [1]: 9

Compound: Cc1nn(C)nc1C(F)(F)S(=O)(=O)C1=NOC(C)(C)C1 [Compound No. 1.05]
Herbicidal action (damage score) AGSTE [1]: 10
Herbicidal action (damage score) AMARE [1]: 10
Herbicidal action (damage score) DIGSA [1]: 10
Herbicidal action (damage score) POATR [1]: 10
Herbicidal action (damage score) SETIT [1]: 10

Compound: Cc1nn(C)nc1C(F)(F)[S+]([O-])C1=NOC(C)(C)C1 (stereo not shown) [Compound No. 1.08, 4-[(5,5-dimethyl-4,5-dihydro-isoxazole-3-sulfinyl)-difluoro-methyl]-2,5-dimethyl-2H-1,2,31-triazole]
Herbicidal action (damage score) AGSTE [1]: 10
Herbicidal action (damage score) AMARE [1]: 10
Herbicidal action (damage score) DIGSA [1]: 10
Herbicidal action (damage score) POATR [1]: 10
Herbicidal action (damage score) SETFA [1]: 9

Compound: CC1(C)CC(S(=O)(=O)C(F)c2cn(C(C)(C)C)nn2)=NO1 (stereo not shown) [Compound No. 2.01]
Herbicidal action (damage score) AGSTE [1]: 10
Herbicidal action (damage score) AMARE [1]: 3
Herbicidal action (damage score) DIGSA [1]: 9
Herbicidal action (damage score) POATR [1]: 0
Herbicidal action (damage score) SETFA [1]: 9

Compound: Cn1nnc(C(F)(F)F)c1C(F)S(=O)(=O)C1=NOC(C)(C)C1 (stereo not shown) [Compound No. 3.01]
Herbicidal action (damage score) AGSTE [1]: 10
Herbicidal action (damage score) AMARE [1]: 5
Herbicidal action (damage score) DIGSA [1]: 10
Herbicidal action (damage score) POATR [1]: 10
Herbicidal action (damage score) SETIT [1]: 8

Compound: Cn1nnc(C(F)(F)F)c1C(F)(F)[S+]([O-])C1=NOC(C)(C)C1 (stereo not shown) [Compound No. 3.03]
Herbicidal action (damage score) AGSTE [1]: 10
Herbicidal action (damage score) AMARE [1]: 10
Herbicidal action (damage score) DIGSA [1]: 9
Herbicidal action (damage score) POATR [1]: 10
Herbicidal action (damage score) SETFA [1]: 8

Compound: Cn1nnc(Br)c1C(F)(F)S(=O)(=O)C1=NOC(C)(C)C1 [Compound No. 3.04]
Herbicidal action (damage score) AGSTE [1]: 10
Herbicidal action (damage score) AMARE [1]: 10
Herbicidal action (damage score) DIGSA [1]: 9
Herbicidal action (damage score) POATR [1]: 10
Herbicidal action (damage score) SETFA [1]: 9
